Assay results published in patent US20240368125A1, “NOVEL PYRAZINYL-TRIAZOLE COMPOUNDS AS PESTICIDES” (Bayer Aktiengesellschaft, priority 2021, published 2024).

Key:
Format in all cases: in vivo
[1] = test system: adult Blattella germanica strain PAULINIA; assay: Blattella germanica test (BLTTGE surface treatment & contact assay); settings: 24 hours after contact, read-out: efficacy (mortality); for mortality at 20 mg/m2: surface concentration 20 mg/m^2, 30 min exposure; for mortality at 4 mg/m2: surface concentration 4 mg/m^2, 30 min exposure
Method: Blattella germanica Test (BLTTGE Surface Treatment & Contact Assay
(§1) Solvent: Aceton+2000 ppm rapeseed oil methyl ester (RME)
In order to produce a sufficient, active ingredient containing solution it is necessary to solve the test compound in the solvent-mix (acetone at 2 mg/ml/RME 2000 ppm). This solution is pipetted onto a glazed tile and after evaporation of the acetone, adult animals of the species Blattella germanica strain PAULINIA are placed onto the dried surface. The exposure time is 30 minutes.
Mortality in percent (%) is determined 24 hours after contact of the insects to the treated surface. 100% mortality means that all tested insects are dead, whereas 0% means that no insect died.

[2] = test system: adult mosquitoes Anopheles funestus strain FUMOZ-R; assay: Anopheles funestus test (ANPHFU surface treatment & contact assay); settings: 24 hours after contact, read-out: efficacy (mortality); for mortality at 4 mg/m2: surface concentration 4 mg/m^2, 30 min exposure; for mortality at 20 mg/m2: surface concentration 20 mg/m^2, 30 min exposure
Method: Anopheles funestus Test (ANPHFU Surface Treatment & Contact Assay
as §1
(§2) In order to produce a sufficient, active ingredient containing solution it is necessary to solve the test compound in the solvent-mix (acetone at 2 mg/ml/RME 2000 ppm). This solution is pipetted onto a glazed tile and after evaporation of the acetone, adult mosquitoes of the species Anopheles funestus strain FUMOZ-R (Hunt et al., Med. Vet. Entomol. 2005 September; 19(3): 271-275) are placed onto the dried surface. The exposure time is 30 minutes. Mortality in percent (%) is determined 24 hours after contact of the insects to the treated surface. 100% mortality means that all tested insects are dead, whereas 0% means that no insect died.

[3] = test system: adult cat fleas (Ctenocephalides felis); assay: Ctenocephalides felis in-vitro contact test, adult cat flea; settings: Ctenocephalides felis; 1 μg/cm^2 (=100 g/ha), after 48 hours; read-out: efficacy (fleas dead or moribund)
[4] = test system: larvae of the banded cucumber beetle (Diabrotica balteata); assay: Diabrotica balteata spray test; settings: Diabrotica balteata, 168 h; 100 g/ha (=32 μg/well), wheat seeds, after 7 days; read-out: efficacy (seedlings grown)
Summary of the method: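 Efficacy was read 7 days after infesting each unit with 10–20 banded cucumber beetle larvae, as % of seedlings growing like untreated, uninfested controls. Before infestation, wheat seeds germinated 1 day on agar (5 per well) were sprayed with the active ingredient. The active was formulated in acetone/DMF and diluted in water containing emulsifier.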

[5] = test system: adult flies Musca domestica strain WHO-N; assay: Musca domestica test (MUSCDO surface treatment & contact assay); settings: 24 hours after contact, read-out: efficacy (mortality); for mortality at 20 mg/m2: surface concentration 20 mg/m^2, 30 min exposure; for mortality at 4 mg/m2: surface concentration 4 mg/m^2, 30 min exposure
Method: Musca domestica Test (MUSCDO Surface Treatment & Contact Assay
as §1
as §2, with “flies” for “mosquitoes”, “Musca domestica” for “Anopheles funestus”, “WHO-N” for “FUMOZ-R (Hunt et al., Med. Vet. Entomol. 2005 September; 19(3): 271-275)”

[6] = test system: larvae of the southern green stink bug (Nezara viridula); assay: Nezara viridula spray test; settings: Nezara viridula, in Hordeum vulgare, 96 h
Summary of the method: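 Barley plants sprayed with compound in acetone/DMF diluted in water with 1000 ppm alkylarylpolyglycol ether emulsifier, then infested with N. viridula larvae. Mortality (%) scored after 4 days; 100% means all bugs killed.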

SMILES | mortality at 20 mg/m2 [1] [%] | mortality at 4 mg/m2 [2] [%] | mortality at 20 mg/m2 [2] [%] | pest or weed control at 1 µg/cm2 [3] [%] | pest or weed control at 32 µg/disc, 100 g/ha [4] [%] | mortality at 20 mg/m2 [5] [%] | mortality at 4 mg/m2 [1] [%] | mortality at 4 mg/m2 [5] [%] | mortality at 500 g/ha [6] [%]
C[C@H](NC(=O)c1cc(OC(F)(F)F)cc(C2CC2)c1)c1ncnn1-c1cnc(C(=O)N(C)C)cn1 [Example I-002] | 80 to 100 | 85 to 100 | 85 to 100 | 100 | 100 | 80 to 100 | – | – | –
C[C@H](NC(=O)c1cc(C(F)(F)F)cc(C(F)(F)F)c1)c1ncnn1-c1cnc(C(=O)N(C)C2CC2)cn1 [Example I-007] | 80 to 100 | – | – | 100 | 100 | 80 to 100 | 80 to 100 | 80 to 100 | –
C[C@H](NC(=O)c1cc(C(F)(F)F)cc(C(F)(F)F)c1)c1ncnn1-c1cnc(C(=O)N(C)CC2CC2)cn1 [Example I-008] | 80 to 100 | – | – | 100 | 100 | 80 to 100 | 80 to 100 | 80 to 100 | 100
CNC(=O)c1cnc(-n2ncnc2[C@H](C)NC(=O)c2cc(C(F)(F)F)cc(C(F)(F)F)c2)cn1 [Example I-009] | 80 to 100 | 85 to 100 | 85 to 100 | 100 | – | 80 to 100 | 80 to 100 | 80 to 100 | 100
CNC(=O)c1cnc(-n2ncnc2[C@H](C)NC(=O)c2cc(OC(F)(F)F)cc(C3CC3)c2)cn1 [Example I-021] | 80 to 100 | – | – | 100 | 100 | 80 to 100 | 80 to 100 | 80 to 100 | 100
